# Measured values reported in PubChem BioAssay AID2060618 (Molecular Pharmacology Branch, DTP, NCI, 2025).
# Where “and” joins values, the source holds several entries; their conditions need not be identical. Equal values may be shown once.
# Test system: 454973-116-R2-J3-PDC spheroids, percent test/control viability
# Assay: Anticancer human tumor 454973-116-R2-J3-PDC patient-derived pancreatic carcinoma cell line growth inhibition [CLK]
# Details: spheroids with HUVEC and MSC; for viability, T/C: stronger effect = lower value
# Procedure, shortened: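 Multi-cell-type spheroids combined patient-derived tumor cells with HUVEC endothelial cells and human mesenchymal stem cells. Paired agents were dosed in half-log steps down from about clinical Cmax, or from 10 microM where Cmax was unknown.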
# [1] = curve of first compound, second compound 0.0316 µM
# [2] = curve of first compound, second compound 0.1 µM
# [3] = curve of first compound, second compound 0.316 µM
# [4] = curve of first compound, second compound 1 µM
# [5] = curve of first compound, second compound 3.16 µM
# [6] = curve of first compound, second compound 10 µM
# [7] = second compound 0.0316 µM, first compound 0.0316 µM
# [8] = second compound 0.0316 µM, first compound 0.1 µM
# [9] = second compound 0.0316 µM, first compound 0.316 µM
# [10] = second compound 0.0316 µM, first compound 1 µM
# [11] = second compound 0.0316 µM, first compound 3.16 µM
# [12] = second compound 0.0316 µM, first compound 10 µM
# [13] = second compound 0.1 µM, first compound 0.0316 µM
# [14] = second compound 0.1 µM, first compound 0.1 µM
# [15] = second compound 0.1 µM, first compound 0.316 µM
# [16] = second compound 0.1 µM, first compound 1 µM
# [17] = second compound 0.1 µM, first compound 3.16 µM
# [18] = second compound 0.1 µM, first compound 10 µM
# [19] = second compound 0.316 µM, first compound 0.0316 µM
# [20] = second compound 0.316 µM, first compound 0.1 µM
# [21] = second compound 0.316 µM, first compound 0.316 µM
# [22] = second compound 0.316 µM, first compound 1 µM
# [23] = second compound 0.316 µM, first compound 3.16 µM
# [24] = second compound 0.316 µM, first compound 10 µM
# [25] = second compound 1 µM, first compound 0.0316 µM
# [26] = second compound 1 µM, first compound 0.1 µM
# [27] = second compound 1 µM, first compound 0.316 µM
# [28] = second compound 1 µM, first compound 1 µM
# [29] = second compound 1 µM, first compound 3.16 µM
# [30] = second compound 1 µM, first compound 10 µM
# [31] = second compound 3.16 µM, first compound 0.0316 µM
# [32] = second compound 3.16 µM, first compound 0.1 µM
# [33] = second compound 3.16 µM, first compound 0.316 µM
# [34] = second compound 3.16 µM, first compound 1 µM
# [35] = second compound 3.16 µM, first compound 3.16 µM
# [36] = second compound 3.16 µM, first compound 10 µM
# [37] = second compound 10 µM, first compound 0.0316 µM
# [38] = second compound 10 µM, first compound 0.1 µM
# [39] = second compound 10 µM, first compound 0.316 µM
# [40] = second compound 10 µM, first compound 1 µM
# [41] = second compound 10 µM, first compound 3.16 µM
# [42] = second compound 10 µM, first compound 10 µM
# 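Further: spheroids exposed to compounds for 7 days before readout.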
smiles,measurement,setting,value
C=C(F)C(=O)N1CCN(c2nc(OCC3CCCN3C)nc3c2CCN(c2cccc4cccc(Cl)c24)C3)CC1CC#N (configuration not stated) + CN1CCN(c2cc(C(=O)Nc3cc4cc(-c5cnn(C)c5)ccc4cn3)ccn2)CC1,IC50,[1],5760 nM
same,IC50,[2],4990 nM
same,IC50,[3],< 31.6 nM
same,IC50,[4],< 31.6 nM
same,IC50,[5],< 31.6 nM
same,IC50,[6],< 31.6 nM
same,"viability, T/C",[7],97.8%
same,"viability, T/C",[8],109%
same,"viability, T/C",[9],98.9%
same,"viability, T/C",[10],101%
same,"viability, T/C",[11],101%
same,"viability, T/C",[12],3.09%
same,"viability, T/C",[13],75.4%
same,"viability, T/C",[14],82.9%
same,"viability, T/C",[15],80.2%
same,"viability, T/C",[16],81%
same,"viability, T/C",[17],91.9%
same,"viability, T/C",[18],0.93%
same,"viability, T/C",[19],1.92%
same,"viability, T/C",[20],2.64%
same,"viability, T/C",[21],2.38%
same,"viability, T/C",[22],2.24%
same,"viability, T/C",[23],1.56%
same,"viability, T/C",[24],0.09%
same,"viability, T/C",[25],0.15%
same,"viability, T/C",[26],0.21%
same,"viability, T/C",[27],2.03%
same,"viability, T/C",[28],0.11%
same,"viability, T/C",[29],0.1%
same,"viability, T/C",[30],1.24%
same,"viability, T/C",[31],0.17%
same,"viability, T/C",[32],2.27%
same,"viability, T/C",[33],0.55%
same,"viability, T/C",[34],0.15%
same,"viability, T/C",[35],0.12%
same,"viability, T/C",[36],1%
same,"viability, T/C",[37],1.46%
same,"viability, T/C",[38],0.37%
same,"viability, T/C",[39],0.27%
same,"viability, T/C",[40],0.68%
same,"viability, T/C",[41],0.23%
same,"viability, T/C",[42],0.25%
C=CC(=O)N1CCN(c2nc(=O)n(-c3c(C)ccnc3C(C)C)c3nc(-c4c(O)cccc4F)c(F)cc23)C(C)C1 (configuration not stated) + CNC(=O)c1ccc(Nc2nc(OC3CCCC3)c3c(-c4ccc5nc(C)oc5c4)c[nH]c3n2)c(OC)c1,IC50,[1],> 10000 nM
same,IC50,[2],> 10000 nM
same,IC50,[3],62.5 nM
same,IC50,[4],< 31.6 nM
same,IC50,[5],< 31.6 nM
same,IC50,[6],< 31.6 nM
same,"viability, T/C",[7],103%
same,"viability, T/C",[8],113%
same,"viability, T/C",[9],118%
same,"viability, T/C",[10],124%
same,"viability, T/C",[11],122%
same,"viability, T/C",[12],115%
same,"viability, T/C",[13],107%
same,"viability, T/C",[14],113%
same,"viability, T/C",[15],101%
same,"viability, T/C",[16],119%
same,"viability, T/C",[17],113%
same,"viability, T/C",[18],120%
same,"viability, T/C",[19],52%
same,"viability, T/C",[20],48.1%
same,"viability, T/C",[21],48%
same,"viability, T/C",[22],47%
same,"viability, T/C",[23],47.5%
same,"viability, T/C",[24],45%
same,"viability, T/C",[25],28.5%
same,"viability, T/C",[26],30.5%
same,"viability, T/C",[27],34%
same,"viability, T/C",[28],32.6%
same,"viability, T/C",[29],37.3%
same,"viability, T/C",[30],31.4%
same,"viability, T/C",[31],32.8%
same,"viability, T/C",[32],24%
same,"viability, T/C",[33],30.9%
same,"viability, T/C",[34],30.9%
same,"viability, T/C",[35],28.5%
same,"viability, T/C",[36],25.4%
same,"viability, T/C",[37],25.2%
same,"viability, T/C",[38],25.6%
same,"viability, T/C",[39],25.6%
same,"viability, T/C",[40],26.1%
same,"viability, T/C",[41],30.2%
same,"viability, T/C",[42],23.5%
CC(Nc1ccc2c(c1)OCCn1cc(N3C(=O)OCC3C(F)F)nc1-2)C(N)=O (configuration not stated) + CN1CCN(c2cc(C(=O)Nc3cc4cc(-c5cnn(C)c5)ccc4cn3)ccn2)CC1,IC50,[1],> 10000 nM
same,IC50,[2],332 nM
same,IC50,[3],< 31.6 nM
same,IC50,[4],< 31.6 nM
same,IC50,[5],< 31.6 nM
same,IC50,[6],< 31.6 nM
same,"viability, T/C",[7],91.9%
same,"viability, T/C",[8],82.3%
same,"viability, T/C",[9],81.4%
same,"viability, T/C",[10],68.3%
same,"viability, T/C",[11],64.8%
same,"viability, T/C",[12],53.1%
same,"viability, T/C",[13],67.4%
same,"viability, T/C",[14],60.2%
same,"viability, T/C",[15],49.9%
same,"viability, T/C",[16],41.8%
same,"viability, T/C",[17],34%
same,"viability, T/C",[18],30.2%
same,"viability, T/C",[19],1.28%
same,"viability, T/C",[20],1.34%
same,"viability, T/C",[21],0.74%
same,"viability, T/C",[22],0.59%
same,"viability, T/C",[23],1.78%
same,"viability, T/C",[24],0.43%
same,"viability, T/C",[25],0.08%
same,"viability, T/C",[26],0.11%
same,"viability, T/C",[27],3.02%
same,"viability, T/C",[28],0.1%
same,"viability, T/C",[29],0.88%
same,"viability, T/C",[30],0.07%
same,"viability, T/C",[31],0.11%
same,"viability, T/C",[32],0.14%
same,"viability, T/C",[33],0.15%
same,"viability, T/C",[34],0.13%
same,"viability, T/C",[35],0.13%
same,"viability, T/C",[36],0.38%
same,"viability, T/C",[37],3.01%
same,"viability, T/C",[38],0.2%
same,"viability, T/C",[39],0.2%
same,"viability, T/C",[40],0.22%
same,"viability, T/C",[41],0.21%
same,"viability, T/C",[42],0.23%
CC1(C)CCC(CN2CCN(c3ccc(C(=O)NS(=O)(=O)c4ccc(NCC5CCOCC5)c([N+](=O)[O-])c4)c(Oc4cnc5[nH]ccc5c4)c3)CC2)=C(c2ccc(Cl)cc2)C1,"viability, T/C",compound 0.0316 µM,101% and 99.6%
same,"viability, T/C",compound 0.1 µM,102% and 95.9%
same,"viability, T/C",compound 0.316 µM,113% and 106%
same,"viability, T/C",compound 1 µM,106% and 102%
same,"viability, T/C",compound 3.16 µM,119% and 111%
same,"viability, T/C",compound 10 µM,25.8% and 21.3%
same,IC50,curve of compound,7150 nM and 6670 nM
CC(=O)O[C@H]1C(=O)[C@@]2(C)[C@H]([C@H](OC(=O)c3ccccc3)[C@]3(O)C[C@H](OC(=O)[C@H](O)[C@@H](NC(=O)c4ccccc4)c4ccccc4)C(C)=C1C3(C)C)[C@]1(OC(C)=O)CO[C@@H]1C[C@@H]2O + CN1CCN(c2cc(C(=O)Nc3cc4cc(-c5cnn(C)c5)ccc4cn3)ccn2)CC1,IC50,[1],< 31.6 nM
same,IC50,[2],< 31.6 nM
same,IC50,[3],< 31.6 nM
same,IC50,[4],< 31.6 nM
same,IC50,[5],< 31.6 nM
same,IC50,[6],< 31.6 nM
same,"viability, T/C",[7],7.05%
same,"viability, T/C",[8],6.65%
same,"viability, T/C",[9],6.57%
same,"viability, T/C",[10],6.34%
same,"viability, T/C",[11],6.67%
same,"viability, T/C",[12],12.9%
same,"viability, T/C",[13],5.8%
same,"viability, T/C",[14],5.47%
same,"viability, T/C",[15],3.95%
same,"viability, T/C",[16],5.69%
same,"viability, T/C",[17],4.88%
same,"viability, T/C",[18],6.14%
same,"viability, T/C",[19],1.6%
same,"viability, T/C",[20],1.85%
same,"viability, T/C",[21],2.44%
same,"viability, T/C",[22],1.75%
same,"viability, T/C",[23],1.77%
same,"viability, T/C",[24],1.9%
same,"viability, T/C",[25],0.11%
same,"viability, T/C",[26],0.1%
same,"viability, T/C",[27],0.92%
same,"viability, T/C",[28],0.07%
same,"viability, T/C",[29],0.08%
same,"viability, T/C",[30],0.09%
same,"viability, T/C",[31],0.14%
same,"viability, T/C",[32],0.12%
same,"viability, T/C",[33],0.21%
same,"viability, T/C",[34],0.12%
same,"viability, T/C",[35],0.15%
same,"viability, T/C",[36],0.13%
same,"viability, T/C",[37],0.14%
same,"viability, T/C",[38],0.17%
same,"viability, T/C",[39],0.19%
same,"viability, T/C",[40],1.2%
same,"viability, T/C",[41],0.16%
same,"viability, T/C",[42],2.06%
CC(CO)NC(=O)c1cc(-c2ccc(Cl)cc2)nn(-c2cnn(C)c2)c1=O (configuration not stated),"viability, T/C",compound 0.0316 µM,112% and 99.4%
same,"viability, T/C",compound 0.1 µM,106% and 92.4%
same,"viability, T/C",compound 0.316 µM,114% and 111%
same,"viability, T/C",compound 1 µM,99.3% and 107%
same,"viability, T/C",compound 3.16 µM,103% and 109%
same,"viability, T/C",compound 10 µM,71.3% and 79%
same,IC50,curve of compound,> 10000 nM
